Data on 2 compounds can be found in patent US8945832B2, “Treatment prediction involving HMGCR” (Atlas Antibodies AB, priority 2008, dated 2015).

Like-named read-outs stand apart in the source and are kept apart here.

The subject of assay [1] is MCF-7 breast cancer cells. To be noted: MCF-7 cells; cited from earlier work.
Assay [2] relates to breast cancer. The conditions noted are these: cited from earlier work.
In assay [3] the test system is breast cancer. The conditions noted are these: 5 years tamoxifen compared to no adjuvant treatment; cited from earlier work.
Assay [4] deals with breast cancer. To be noted: patients with ER positive tumors, irrespective of lymph node status; five years adjuvant; cited from earlier work.
In assay [5] the test system is stage II invasive breast cancer. Nature of the assay: Randomized premenopausal cohort: recurrence free survival, adjuvant tamoxifen vs no adjuvant endocrine treatment, by HMGCR protein status (IHC on TMA). In kind it is in vivo, human. To be noted: for outcome (RFS) of HMGCR positive and ER negative vs HMGCR negative and ER positive patients: tamoxifen treated cohort. The protocol: The inclusion criteria were pre-menopausal patients, or patients younger than 50 years, with stage II (pT2 N0 M0, pT1-2 N1 M0) invasive breast cancer treated by modified mastectomy or breast conserving surgery with axillary lymph node dissection. Post-operative radiotherapy (50 Gy) was administered after breastconserving surgery and all lymph node-positive patients received locoregional radiotherapy. […] The study design is described in detail elsewhere (Rydén L et al, Eur J Cancer, 2005, 41(2): 256-64). Ethical permission was obtained from the Local Ethics Committees at Lund and Linköping Universities.
Tissue blocks from 500 of the 564 patients could be retrieved for TMA-construction. All cases had been histopathologically re-evaluated on hematoxylin and eosin stained slides. TMA:s were constructed by sampling 2×0.6 mm cores per case from areas representative of invasive cancer, using an manual arraying device (MTA-1, Beecher Inc, WI, USA). […] IHC staining of ER and PR had been performed previously. In line with current clinical praxis, a cut-off at 10% positive nuclei was used to define hormone receptor positivity.
For statistical analyses, the cytoplasmic intensity (CI) level was evaluated, in line with what is described in Examples, Section 3 above. […] Two categories were defined: “HMGCR high” corresponding to CI=weak, moderate and strong and “HMGCR low” corresponding to CI=absent This classification of samples was used for RFS analysis according to the Kaplan-Meier estimator, and the log-rank test was used to compare survival in different strata. ER and PR negativity was defined as <10% positively staining nuclei, according to current clinical guidelines in Sweden. All statistical tests were two-sided, and p-values of <0.05 were considered significant. All calculations were made with the statistical package SPSS 17.0 (SPSS Inc. Illinois, USA).

For assay [6], the system named is breast cancer. The conditions noted are these: cited from earlier work. This is another data set of the same source.
Assay [7] concerns breast cancer. The conditions noted are these: cited from earlier work. This is another data set of the same source.
For another assay, the system named is primary breast tumors. As to the kind of experiment: Gene expression analysis of breast cancer: RFS by HMGCR mRNA level in tamoxifen treated patients (GSE 9893). In kind it is in vivo, human. The text has this: Data was collected from a previously performed microarray study, Chanrion et al, based on a patient cohort of 155 primary breast tumors obtained from patients who had undergone initial surgery between 1989 and 2001 at the Cancer Research Center of Val d'Aurelle in Montpellier, the Bergonie' Institute in Bordeaux, or the Department of Obstetrics and Gynecology of Turin.
The median follow-up time for all patients was 5.5 years. Eight tumors were ER negative, and six of these tumors were progesterone receptor (PR) positive. No patient received neoadjuvant systemic chemotherapy. […] 121 patients also received adjuvant radiotherapy. Raw gene expression data and clinical data were downloaded from Gene Expression Omnibus (http://www.ncbi.nlm.nih.gov/GEO/) (accession number GSE 9893). The log ratio of gene expression values was used without further transformation. For statistical analysis HMGCR mRNA expression levels were analysed as a continuous variable.

Take `CC[C@H](C)C(=O)O[C@H]1CCC=C2C=C[C@H](C)[C@H](CC[C@@H]3C[C@@H](O)CC(=O)O3)[C@H]21` [mevastatin]: in assay [1], the “induction of HMGCR activity” value is recorded as 10- to 15 fold and the “induction of HMGCR mRNA expression” value was 2.5- to 3.5 fold.

For the compound `CC/C(=C(\c1ccccc1)c1ccc(OCCN(C)C)cc1)c1ccccc1` [tamoxifen], the “disease free survival, tamoxifen vs no adjuvant treatment” value is recorded as “significantly longer disease free survival” in the assay with breast cancer [2] (older patients (≧60 years) with ERα+/PR+ tumors) and “no significant effect” with breast cancer [2] (younger patients (<60 years)). Also, the “reduction in breast cancer specific mortality” value with breast cancer [3] is 34%. In the assay on breast cancer [3], the “reduction in disease recurrence” value is listed as 41%. For the same compound, the breast cancer mortality result in the assay with breast cancer [4] was “reduces the breast cancer mortality”. The “RFS of HMGCR high vs HMGCR low category” value is reported as “significantly better RFS” in assay [5] (ER positive tamoxifen treated subjects, FIG. 2a) and “significantly better RFS” in assay [5] (patients treated with tamoxifen, FIG. 1a, p=0.001). Moreover, the “effect of tamoxifen treatment on recurrence free survival” value in assay [5] (HMGCR negative and ER negative subjects, FIG. 10b) is given as “no positive effect”; in assay [5] (HMGCR positive and ER negative subjects, FIG. 9a), “improved survival”; in assay [5] (HMGCR positive and ER negative, lymph node positive patients, FIG. 9b), “further enhanced”; in assay [5] (HMGCR positive or ER positive subjects, FIG. 10a) it was “significantly positive effect”; in assay [5] (patients with HMGCR high tumors, irrespective of ER status, tamoxifen vs no adjuvant endocrine treatment, FIG. 8a), “significantly improved survival”; in assay [5] (patients with HMGCR low tumors, irrespective of ER status, FIG. 8b), “no impact on survival”. Further, in assay [5] (HMGCR positive and PR negative subjects, FIG. 12, not statistically significant), the “tamoxifen impact on survival (RFS)” value is “trend of tamoxifen impact on survival”. Further, the “response to tamoxifen treatment (RFS)” value in assay [5] (PR negative and HMGCR negative subjects, FIG. 11b) was “no response”; in assay [5] (PR positive and HMGCR positive subjects, FIG. 11a) it was “significant response”. Further, the “RFS associated with HMGCR expression” value in assay [5] (lymph node positive patients who received tamoxifen, FIG. 4a, p=0.001) is “improved RFS”. In addition, the “outcome (RFS) of HMGCR positive and ER negative vs HMGCR negative and ER positive patients” value is “better outcome” in assay [5] (node positive subjects, FIG. 6a) and “better outcome” in assay [5] (FIG. 3a). Besides, in assay [5] (tamoxifen treated ER negative subjects, FIG. 7a), the “effect of HMGCR level on RFS” value was “positive effect on RFS”. In the assay on breast cancer [6], the “ERα positive patients who do not respond to tamoxifen treatment” value is recorded as 30-40%. Further, the “recurrence-free and overall survival in tamoxifen treated patients” value in the assay with breast cancer [7] (high expression (>75% nuclear fraction) of PR, irrespectively of ERα status) is “increased recurrence-free and overall survival”. Besides, the “effect from tamoxifen treatment” value in the assay with breast cancer [7] (lower PR level, <75%) is recorded as “no positive effect”. Further, the “RFS of high vs low HMGCR mRNA expression” value in the assay with primary breast tumors (ER positive subjects only, adjuvant tamoxifen, FIG. 13b) was “improved RFS”; in the assay on primary breast tumors (all 155 patients, adjuvant tamoxifen 20 mg daily for 5 years, FIG. 13a), “significantly better RFS”.
